The text below walks through data of US10988449B2, “Isoxazole derivatives as nuclear receptor agonists and uses thereof” (IL DONG PHARMACEUTICAL CO., LTD., priority 2017, dated 2021).

Each structure is given as a SMILES string. Where a name gives a salt, the structure may show the parent alone.

The target of this assay is T1, human FXR (Homo sapiens, UniProt Q96RI1).
T1 construct: expressed in transfected cells
T1 sequence (Q96RI1 1-486): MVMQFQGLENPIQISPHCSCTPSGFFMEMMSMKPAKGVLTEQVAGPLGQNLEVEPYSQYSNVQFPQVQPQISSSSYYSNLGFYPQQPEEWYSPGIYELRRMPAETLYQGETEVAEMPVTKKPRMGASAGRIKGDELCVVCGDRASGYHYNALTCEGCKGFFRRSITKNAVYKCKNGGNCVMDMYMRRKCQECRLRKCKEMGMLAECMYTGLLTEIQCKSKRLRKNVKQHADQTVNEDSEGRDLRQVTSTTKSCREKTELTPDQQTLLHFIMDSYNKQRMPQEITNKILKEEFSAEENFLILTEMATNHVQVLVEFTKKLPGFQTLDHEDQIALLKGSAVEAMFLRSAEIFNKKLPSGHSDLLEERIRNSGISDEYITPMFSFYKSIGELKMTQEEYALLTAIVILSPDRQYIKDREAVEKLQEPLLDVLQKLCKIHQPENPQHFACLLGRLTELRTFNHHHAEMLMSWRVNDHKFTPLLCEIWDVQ
In words: FXR reporter assay (cellular FXR activities). It counts as cell-based. As to conditions: for EC50: FXR reporter cells, 24 hours incubation, luciferase, read-out: Reporter Cell EC50; for Emax: read-out: Emax (%) (GW4064 Emax = 100%). As to the method: FXR reporter assay was performed to measure cellular FXR activities of the compounds in the present invention. FXR reporter cells with high expression level of human FXR were seeded into 96-well cell culture plates, and incubated for 1-2 hours at 37° C. under 5% CO2 atmosphere. The invented compounds diluted in DMSO with various concentrations were added to the 96-well cell culture plates, and they were incubated for 24 hours at 37° C. under 5% CO2 atmosphere. After incubation, we calculate EC50 by using luciferase substrate.
In general terms: Reporter assays use an easily measured gene product as a stand-in for the process of interest.

As to `N#Cc1cc(C#Cc2ccc(OCc3c(-c4c(Cl)cccc4Cl)noc3C3CC3)cc2Cl)cc(C(=O)O)c1` [Compound I-33, 3-((2-chloro-4-((5-cyclopropyl-3-(2,6-dichlorophenyl)isoxazol-4-yl)methoxy)phenyl)ethynyl)-5-cyanobenzoic acid], the concentration giving a half-maximal response (EC50) (as a rule, the concentration needed to bring the measured effect to its halfway point) was 0.06 to 0.2 µM and the maximum response (Emax) (commonly the size of the effect at its maximum, as opposed to the concentration needed) came to 99%.
In the same order, the values of `O=C(O)c1cccc(C#Cc2c(Cl)cc(OCc3c(-c4c(Cl)cccc4Cl)noc3C3CC3)cc2Cl)c1` [Compound I-34, 3-((2,6-dichloro-4-((5-cyclopropyl-3-(2,6-dichlorophenyl)isoxazol-4-yl)methoxy)phenyl)ethynyl)benzoic acid] are 0.06 to 0.2 µM and 100%.
Turning to `O=C(O)c1cccc(C#Cc2ccc(OCc3c(-c4c(Cl)cccc4Cl)noc3C3CC3)cc2Cl)c1Cl` [Compound I-35, 2-chloro-3-((2-chloro-4-((5-cyclopropyl-3-(2,6-dichlorophenyl)isoxazol-4-yl)methoxy)phenyl)ethynyl)benzoic acid], the EC50 was in the range of 0.2 to 1 µM and the Emax came out at 86%.
As for `O=C(O)c1cccc(C#Cc2ccc(OCc3c(-c4c(Cl)cccc4Cl)noc3C3CC3)cc2Cl)c1F` [Compound I-36, 3-((2-chloro-4-((5-cyclopropyl-3-(2,6-dichlorophenyl)isoxazol-4-yl)methoxy)phenyl)ethynyl)-2-fluorobenzoic acid], the EC50 fell in the range of 0.06 to 0.2 µM and the Emax is 93%.
In the same order, the values of `O=C(O)c1cc(C#Cc2ccc(OCc3c(-c4c(Cl)cccc4Cl)noc3C3CC3)cc2Cl)ccc1F` [Compound I-37, 5-((2-chloro-4-((5-cyclopropyl-3-(2,6-dichlorophenyl)isoxazol-4-yl)methoxy)phenyl)ethynyl)-2-fluorobenzoic acid] are 0.06 to 0.2 µM and 94%.
The like results for `O=C(O)c1cc(C#Cc2ccc(OCc3c(-c4c(Cl)cccc4Cl)noc3C3CC3)cc2Cl)cc(OC(F)(F)F)c1` [Compound I-39, 3-((2-chloro-4-((5-cyclopropyl-3-(2,6-dichlorophenyl)isoxazol-4-yl)methoxy)phenyl)ethynyl)-5-(trifluoromethoxy)benzoic acid] were, in that order, 0.2 to 1 µM and 85%.
The like results for `COc1cc(C#Cc2ccc(OCc3c(-c4c(Cl)cccc4Cl)noc3C3CC3)cc2Cl)cc(C(=O)O)c1` [Compound I-40, 3-((2-chloro-4-((5-cyclopropyl-3-(2,6-dichlorophenyl)isoxazol-4-yl)methoxy)phenyl)ethynyl)-5-methoxybenzoic acid] were, in that order, 0.02 to 0.06 µM and 83%.
As for `O=Cc1cc(C#Cc2ccc(OCc3c(-c4c(Cl)cccc4Cl)noc3C3CC3)cc2Cl)cc(C(=O)O)c1` [Compound I-41, 3-((2-chloro-4-((5-cyclopropyl-3-(2,6-dichlorophenyl)isoxazol-4-yl)methoxy)phenyl)ethynyl)-5-formylbenzoic acid], the concentration giving a half-maximal response (EC50) is 0.02 to 0.06 µM and the maximum response (Emax) was over 100%.
In the same order, the values of `O=C(O)c1cc(C#Cc2ccc(OCc3c(-c4c(Cl)cccc4Cl)noc3C3CC3)cc2Cl)cc(CNC2CC2)c1` [Compound I-42, 3-((2-chloro-4-((5-cyclopropyl-3-(2,6-dichlorophenyl)isoxazol-4-yl)methoxy)phenyl)ethynyl)-5-((cyclopropylamino)methyl)benzoic acid] are 0.02 to 0.06 µM and over 100%.
`O=C(O)c1cc(C#Cc2ccc(OCc3c(-c4c(Cl)cccc4Cl)noc3C3CC3)cc2Cl)cc(CN2CCC2)c1` [Compound I-43, 3-(azetidin-1-ylmethyl)-5-((2-chloro-4-((5-cyclopropyl-3-(2,6-dichlorophenyl)isoxazol-4-yl)methoxy)phenyl)ethynyl)benzoic acid]: the concentration giving a half-maximal response (EC50) was 0.06 to 0.2 µM and the Emax was over 100%.
The like results for `CNCc1cc(C#Cc2ccc(OCc3c(-c4c(Cl)cccc4Cl)noc3C3CC3)cc2Cl)cc(C(=O)O)c1` [Compound I-44, 3-((2-chloro-4-((5-cyclopropyl-3-(2,6-dichlorophenyl)isoxazol-4-yl)methoxy)phenyl)ethynyl)-5-((methylamino)methyl)benzoic acid] were, in that order, 0.2 to 1 µM and over 100%.
The like results for `CCNCc1cc(C#Cc2ccc(OCc3c(-c4c(Cl)cccc4Cl)noc3C3CC3)cc2Cl)cc(C(=O)O)c1` [Compound I-45, 3-((2-chloro-4-((5-cyclopropyl-3-(2,6-dichlorophenyl)isoxazol-4-yl)methoxy)phenyl)ethynyl)-5-((ethylamino)methyl)benzoic acid] were, in that order, 0.2 to 1 µM and 88%.
As to `O=C(O)c1cc(C#Cc2ccc(OCc3c(-c4c(Cl)cccc4Cl)noc3C3CC3)cc2Cl)cc(CNCC(F)(F)F)c1` [Compound I-46, 3-((2-chloro-4-((5-cyclopropyl-3-(2,6-dichlorophenyl)isoxazol-4-yl)methoxy)phenyl)ethynyl)-5-(((2,2,2-trifluoroethyl)amino)methyl)benzoic acid], the EC50 was 0.06 to 0.2 µM and the maximal response (Emax) turned out to be 99%.
Take `CC(C)(C)NCc1cc(C#Cc2ccc(OCc3c(-c4c(Cl)cccc4Cl)noc3C3CC3)cc2Cl)cc(C(=O)O)c1` [Compound I-48, 3-((tert-butylamino)methyl)-5-((2-chloro-4-((5-cyclopropyl-3-(2,6-dichlorophenyl)isoxazol-4-yl)methoxy)phenyl)ethynyl)benzoic acid]: the EC50 was 0.2 to 1 µM and the maximal response (Emax) stood at 81%.
With `CN(C)Cc1cc(C#Cc2ccc(OCc3c(-c4c(Cl)cccc4Cl)noc3C3CC3)cc2Cl)cc(C(=O)O)c1` [Compound I-49, 3-((2-chloro-4-((5-cyclopropyl-3-(2,6-dichlorophenyl)isoxazol-4-yl)methoxy)phenyl)ethynyl)-5-((dimethylamino)methyl)benzoic acid], the half-maximal effective concentration (EC50) is 0.02 to 0.06 µM and the Emax was over 100%.
In the same order, the values of `O=C(O)c1cc(C#Cc2ccc(OCc3c(-c4c(Cl)cccc4Cl)noc3C3CC3)cc2Cl)cc(CN2CCOCC2)c1` [Compound I-50, 3-((2-chloro-4-((5-cyclopropyl-3-(2,6-dichlorophenyl)isoxazol-4-yl)methoxy)phenyl)ethynyl)-5-(morpholinomethyl)benzoic acid] are 0.02 to 0.06 µM and over 100%.
In the same order, the values of `O=C(O)c1cc(C#Cc2ccc(OCc3c(-c4c(Cl)cccc4Cl)noc3C3CC3)cc2Cl)cc(CNC2COC2)c1` [Compound I-51, 3-((2-chloro-4-((5-cyclopropyl-3-(2,6-dichlorophenyl)isoxazol-4-yl)methoxy)phenyl)ethynyl)-5-((oxetan-3-ylamino)methyl)benzoic acid] are 0.2 to 1 µM and 75%.
The like results for `CCNc1cc(C#Cc2ccc(OCc3c(-c4c(Cl)cccc4Cl)noc3C3CC3)cc2Cl)cc(C(=O)O)c1` [Compound I-53, 3-((2-chloro-4-((5-cyclopropyl-3-(2,6-dichlorophenyl)isoxazol-4-yl)methoxy)phenyl)ethynyl)-5-(ethylamino)benzoic acid] were, in that order, at most 0.02 µM and 93%.
In the case of `O=C(O)c1cc(C#Cc2ccc(OCc3c(-c4c(Cl)cccc4Cl)noc3C3CC3)cc2Cl)cc(N2CCC2)c1` [Compound I-55, 3-(azetidin-1-yl)-5-((2-chloro-4-((5-cyclopropyl-3-(2,6-dichlorophenyl)isoxazol-4-yl)methoxy)phenyl)ethynyl)benzoic acid], the EC50 was 0.02 to 0.06 µM and the Emax is over 100%.
For the compound `O=C(O)c1cc(C#Cc2ccc(OCc3c(-c4c(Cl)cccc4Cl)noc3C3CC3)cc2Cl)cc(N2CCCC2)c1` [Compound I-56, 3-((2-chloro-4-((5-cyclopropyl-3-(2,6-dichlorophenyl)isoxazol-4-yl)methoxy)phenyl)ethynyl)-5-(pyrrolidin-1-yl)benzoic acid], the EC50 was at most 0.02 µM and the maximal effect (Emax) was 96%.
The like results for `O=C(O)c1cc(C#Cc2ccc(OCc3c(-c4c(Cl)cccc4Cl)noc3C3CC3)cc2Cl)cc(NC2CCNCC2)c1` [Compound I-58, 3-((2-chloro-4-((5-cyclopropyl-3-(2,6-dichlorophenyl)isoxazol-4-yl)methoxy)phenyl)ethynyl)-5-(piperidin-4-ylamino)benzoic acid hydrochloride] were, in that order, over 1 µM and 75%.
For the compound `O=C(O)c1cc(C#Cc2ccc(OCc3c(-c4c(Cl)cccc4Cl)noc3C3CC3)cc2Cl)cc(N2CCNCC2)c1` [Compound I-59, 3-((2-chloro-4-((5-cyclopropyl-3-(2,6-dichlorophenyl)isoxazol-4-yl)methoxy)phenyl)ethynyl)-5-(piperazin-1-yl)benzoic acid hydrochloride], the half-maximal effective concentration (EC50) fell in the range of 0.2 to 1 µM and the Emax is 90%.
In the same order, the values of `Cc1c(N)cc(C(=O)O)cc1C#Cc1ccc(OCc2c(-c3c(Cl)cccc3Cl)noc2C2CC2)cc1Cl` [Compound I-60, 3-amino-5-((2-chloro-4-((5-cyclopropyl-3-(2,6-dichlorophenyl)isoxazol-4-yl)methoxy)phenyl)ethynyl)-4-methylbenzoic acid] are 0.02 to 0.06 µM and 98%.
